Experimental data from paper PMC9440176, “Novel benzylidene benzofuranone analogues as potential anticancer agents: design, synthesis and in vitro evaluation based on CDK2 inhibition assays” (3 Biotech, 2022).

Columns and labels:
[1] = target: CDK2/Cyclin A (Homo sapiens, UniProt P24941); test: CDK2/cyclin A inhibitory assay, Z'-LYTE FRET kinase assay; type: biochemical; conditions: concentration of 100 micro molar; 1000 ng/ml kinase, 1000 µM ATP
From the text: Z’-LYTE® technology involves homogeneous assay design based on FRET and is a universal platform for both screening as well as profiling protein kinases. The assay uses a peptide substrate labeled with two different fluorophores, coumarin donor and fluorescein acceptor on each end. These two fluorophores make up a FRET pair, which allows the transfer of energy when both are present on the same molecule. The initial kinase reaction transfers the ϒ-phosphate of ATP to a tyrosine or serine/threonine residue on the substrate. In a secondary reaction, referred to as the development reaction, a site-specific protease recognizes and cleaves only non-phosphorylated peptide, while phosphorylated substrate remains uncleaved. […] Upon excitation of Coumarin at 400 nm, the FRET signal is measured as a ratio between the Coumarin donor emission at 445–460 nm and the fluorescein acceptor emission at 520–535 nm(Lebakken et al. [2007]).
Initial ten-fold and two-fold dilutions of Kinase and ATP concentrations were used to choose the optimal Kinase and ATP concentration based on the % Phosphorylation.
The assay was carried out according to the kit instructions (384 well format). Briefly, 5X kinase buffer [250 mM HEPES (pH 7.5), 50 mM MgCl2, 5 mM EGTA, 0.05% BRIJ-35] was diluted to 1X using distilled water. The phosphor peptide positive control (Z’-LYTE® Tyr 4 phospho-peptide) and the non-phosphorylated negative control (Z’-LYTE® Tyr 4 peptide) were then diluted to 1:500 with 1× kinase buffer to 2 μM. […] Working development solution was then made by diluting 12 μL of the provided stock solution with 388 μL of the provided development buffer. Aliquots (20 μL) of each peptide mixture were then added to the wells of a Corning 3914 solid white microplate in replicates of 8. The development reaction was initiated by the addition of 10 μL of working development-solution to all the wells. Further, the plates were allowed to incubate at room temperature for 60 min. Reactions were then stopped by the addition of 10 μL of stop solution (Jia et al. [2008]).
Reactions were quantitated using a Tecan Robotic Microplate Reader. Reader control, blank subtraction, ratio metric calculations and finally graph plotting were carried out using Gen5™ Data Analysis Software.
The CDK2/Cyclin A assay was carried out as per the manufacturer’s instruction using suitable controls and standard.
The inhibitory assay was carried out using the stock of 10 mM in DMSO. Samples were further serially diluted to obtain concentrations of 100 μM. The concentrations were chosen based on the IC50 values obtained in the MTT assay. A total of 23 analogues were selected for the assay based on their antiproliferative activity. Further, selected compounds were screened and tested against the target CDK2/Cyclin A, and their % phosphorylation and % inhibition were recorded.

[2] = ABTS.+ radical scavenging assay
Description: The assay was performed in a 96-well plate by serial dilution method. A 2 mM ABTS^.+ working solution was prepared in a phosphate buffer (Zheleva-Dimitrova et al [2010]).To this, 200 μL of aqueous potassium per sulfate (70 mM) solution was added and the solution was incubated for 24 h in the dark at room temperature to develop a blue-green color. To 30 μL of ABTS^.+ working solution, 50 μL of different concentrations (3.9–1000 μM) of the test sample solution and 170 μL of phosphate buffer (pH-7.4) were added in a well. The plate was then incubated in the dark at room temperature for 10 min. Then absorbance was measured at 690 nm using Elisa reader. Quercetin and ascorbic acid were used as standards. The percentage scavenging of ABTS^.+ was calculated using the formula, (Control Absorbance–Test Absorbance)*100/(Control Absorbance) and the anti-oxidant activity was expressed in terms of IC50 value.

[3] = test system: MCF-7; test: MTT cytotoxicity assay on MCF-7; type: cell-based; conditions: 24 h, read-out: Inhibition of cell proliferation, IC50, MCF-7
Description: (§1) The monolayer cell culture was trypsinized and the cell count was adjusted to 5.0 × 10^5 cells/ml using respective media containing 10% FBS. To each well of the 96-well microtiter plate, 100 µL of the diluted cell suspension (50,000cells/well) was added. After 24 h, when a partial monolayer was formed, the supernatant was flicked off, the monolayer was then washed once again with the medium and 100 µL of different test concentrations of test drugs were added on to the partial monolayer in microtiter plates. The plates were then incubated at 37 °C for 24 h in 5% CO2 atmosphere. After incubation, the test solutions in the wells were discarded and 100 µL of MTT (5 mg/10 ml of MTT in PBS) was added to each well. The plates were then incubated for 4 h at 37 °C in 5% CO2 atmosphere. The supernatant was then removed and 100 µL of DMSO was added and the plates were gently shaken to solubilize the formed formazan. The absorbance was measured using a microtiter plate reader at a wavelength of 590 nm. The percentage growth inhibition was thus calculated using the following formula and the concentration of the test drug required to inhibit the cell growth by 50% (IC50) values is generated from the dose–response curves for each one of the cell lines (Meerloo et al. [2011]).
(§2) The test compounds were screened for their in vitro cytotoxicity by MTT assay against two cancer cell lines, namely MCF-7, HCT-116 and normal epithelial kidney cells (Vero). Doxorubicin was used as a reference standard.

[4] = DPPH. free radical scavenging assay
Description: DPPH. assay was performed using 96-well plate by serial dilution method. The dilution of methanolic stock solution of the test compounds and standard anti-oxidants was carried out to obtain concentration in the range of 3.9–1000 µM. Quercetin and ascorbic acid were used as standards. To a 100 μL of this solution, 100 μL of 200 µM DPPH^. in methanolic solution was added. The experiment was done in triplicate and the plate was then incubated for 30 min in the dark and later the absorbance was measured at 517 nm using Elisa reader. The percentage DPPH^. Scavenging was calculated using the formula, (Control Absorbance–Test Absorbance)*100/(Control Absorbance). The anti-oxidant activity of the test compounds was expressed in terms of concentration required for 50 percentage inhibition (IC50) (Collins [2005]).

[5] = test system: HCT 116; test: MTT cytotoxicity assay on HCT 116; type: cell-based, Human; conditions: 24 h, read-out: Inhibition of cell proliferation, IC50, HCT 116
Description: as §1, §2

[6] = test system: normal epithelial kidney cells (Vero); test: MTT cytotoxicity assay on Vero; type: cell-based; conditions: 24 h, read-out: Inhibition of cell proliferation, IC50, Vero
Description: as §1, §2

Structure (SMILES)	% inhibition on CDK2/cyclin A [1] [%]	IC50 [2] [µM]	IC50 [3] [µM]	IC50 [4] [µM]	IC50 [5] [µM]	IC50 [6] [µM]
COc1ccc(/C=C2\Oc3c(c(OC)cc(OC)c3C3=CCN(C)CC3)C2=O)cc1OC [NMA6]	26.113	200 ± 4.43	98.5	258 ± 8.83	123	> 200
COc1cc(OC)c(C2=CCN(C(C)C)CC2)c2c1C(=O)/C(=C/c1ccccc1Br)O2 [NISOA2]	39.811	234 ± 8.45	103	381 ± 28.1	125	> 200
COc1cc(OC)c(C2=CCN(C)CC2)c2c1C(=O)/C(=C/c1ccccc1)O2 [NMA1]	27.654	131 ± 1.74	67.8	151 ± 3.54	86.9	187
CCCN1CC=C(c2c(OC)cc(OC)c3c2O/C(=C\c2ccc(OC)c(OC)c2)C3=O)CC1 [NPA5]	12.547	76.1 ± 1.75	68.5	89.7 ± 9.65	74.3	99.9
CCCN1CC=C(c2c(OC)cc(OC)c3c2O/C(=C\c2ccc(Cl)cc2)C3=O)CC1 [NPA4]	14.753	134 ± 3.71	42.1	162.34 ± 0.06	44	102
CCCN1CC=C(c2c(OC)cc(OC)c3c2O/C(=C\c2ccccc2Br)C3=O)CC1 [NPA3]	17.045	123 ± 4.55	53.9	159 ± 13.9	67.9	
COc1cc(OC)c(C2=CCN(C(C)C)CC2)c2c1C(=O)/C(=C/c1ccc3ccccc3c1)O2 [NISOA1]	38.987	112 ± 5.45	46.8	128 ± 17.9	63.2	172
CCN1CC=C(c2c(OC)cc(OC)c3c2O/C(=C\c2ccccc2Br)C3=O)CC1 [NEA3]	35.559	67.1 ± 3.2	28.1	85.5 ± 6.87	33	
COc1ccc(/C=C2\Oc3c(c(OC)cc(OC)c3C3=CCN(C(C)C)CC3)C2=O)cc1 [NISOA5]	39.054	109 ± 9.23	39.6	129 ± 6.78	55.4	167
CCCN1CC=C(c2c(OC)cc(OC)c3c2O/C(=C\c2ccc(N(C)C)cc2)C3=O)CC1 [NPA2]	13.664	99.3 ± 1.14	46.9	119 ± 12.9	87.3	172
CCCN1CC=C(c2c(OC)cc(OC)c3c2O/C(=C\c2ccc4ccccc4c2)C3=O)CC1 [NPA1]	16.089	101 ± 2.81	75	133 ± 19.1	94.3	166
COc1cc(OC)c(C2=CCN(C(C)C)CC2)c2c1C(=O)/C(=C/c1ccc(Cl)cc1)O2 [NISOA6]	36.546	146 ± 14.8	43.9	183 ± 11.9	41.8	179
COc1cc(OC)c(C2=CCN(C)CC2)c2c1C(=O)/C(=C/c1ccc(N(C)C)cc1)O2 [NMA4]	29.543	137 ± 6.23	63.8	154 ± 12.7	89.5	> 200
O=C1O[C@H]([C@@H](O)CO)C(O)=C1O [Ascorbic acid, reference compound]		24.1 ± 1.23		18.5 ± 1.38		
CCN1CC=C(c2c(OC)cc(OC)c3c2O/C(=C\c2ccc4ccccc4c2)C3=O)CC1 [NEA1]	32.676	120.9 ± 1.08	57.9	141 ± 13.9	68.6	
O=c1c(O)c(-c2ccc(O)c(O)c2)oc2cc(O)cc(O)c12 [Quercetin, reference compound]		39 ± 0.58		31.42 ± 0.09		
CCN1CC=C(c2c(OC)cc(OC)c3c2O/C(=C\c2ccccc2OC)C3=O)CC1 [NEA2]	28.008	179 ± 6	49.1	220 ± 2.77	56.7	
